Read-outs that look alike come from different tables or passages of the source. No end group written: not given here.

In one assay the target is T1, K48-Ub2 (Homo sapiens, UniProt P0CG47).
T1 construct: solid phase peptide synthesis of Ub monomers (modified as required); made in house; host or cells: total chemical synthesis (SPPS, isopeptide ligation, desulfurization)
Briefly: SPR binding of cyclic peptides to K48-linked di-ubiquitin.

A further assay concerns the target T2, ^K48Ub4 (Homo sapiens, UniProt P0CG47).
T2 construct: solid phase peptide synthesis of Ub monomers (modified as required); made in house
Briefly: SPR binding of cyclic peptides to K48-linked tetra-ubiquitin. The method, then: Surface Plasmon Resonance (SPR)
The interactions between cyclic peptides: U2i, U2ii, U4i, U4ix and Ub1, ^K48Ub2 and ^K48Ub4, were determined using BIACORE T100 instrument (GE healthcare) equipped with a biotin CAPture kit Series S chip. The buffer in all experiments contained 50 mM HEPES, pH 7.3, 150 mM NaCl, 0.05% Tween20, 2 mM DTT with 0.2% DMSO. Biotinylated Ub1, ^K48Ub2 and ^K48Ub4 were loaded to approximately equal molar amounts on the SPR chip, and various concentrations of cyclic peptides were flowed over at […] for 120 sec, before initiation of dissociation by flowing buffer over at […] for further 700 sec. Traces were fit to the simplest, two-state model for binding. Association was fit to a single exponential assuming pseudo-first order conditions, whereas the dissociation trace was fit to single exponential plus a drift term. Finally, due to the poor quality of the traces for U4ix binding ^K48Ub2, the amplitude of the association kinetic trace at different concentrations of peptide was fit to estimate the lower bound for KD.
Each peptide was flowed over Ub1, ^K48Ub2 and […] immobilized on SPR chips. There was no detectable binding to Ub1 for any of the peptides, as expected, as Ub1 binding was explicitly selected against during the RaPID protocol. […] However, Ub2i and Ub2ii also strongly bound ^K48Ub4, with a low apparent KD and an increased SPR response (FIG. 1E). This was consistent with a higher stoichiometry of binding to the tetramer, which could be explained by additional binding sites in ^K48Ub4. Indeed, the ^K48Ub2 structure can be superimposed twice on the ^K48Ub4 crystal structure (FIG. 10). […] However, similar to Ub2i and Ub2ii, Ub4i also bound ^K48Ub2. This was perhaps unsurprising, given the high sequence identity between Ub4i and Ub2i.
On the technique in general: SPR reads the build-up and loss of mass on a sensor chip optically.

Assay [1] concerns USP2. Briefly: In vitro deubiquitination assay, USP2 with K48-linked di-Ub. The class given is biochemical. To be noted: di-Ub as the substrate. The procedure:
(§1) In Vitro Deubiquitination Assay
(§2) In vitro deubiquitination reactions were performed in a Tris buffer (50 mM TRIS, 1 mM TCEP, pH 7.7), containing 2 μM ^K48Ub2/4, then the specific DUB (50 mM Tris, 0.5 mM EDTA, 1 mM TCEP and 0.5 mg/ml ovalbumin, pH 7.5) was added. The reaction mixtures were incubated at 37° C. and at the indicated time points the reactions were stopped by taking aliquots and mixed them with 3× sample buffer and boiling. The same amounts were loaded on 14% SDS-PAGE, electro-blotted to nitrocellulose membrane and probed with an anti-Ub antibody. Bands were quantified with Image Quant LAS 4000 (GE Healthcare).
(§3) The inventors further chose to examine the effect of these cyclic peptides on two DUBs: OTUB1, a K48-linkage chain specific DUB, and USP2, which cleaves most Ub chains without specificity, using K48-linked di- and tetra-Ub chains as substrates.

The subject of the next assay is 26S proteasome. In words: In vitro proteasome degradation assay of HA-α-globin-K48-linked tetra-Ub. To be noted: 5.3 μM peptide. The class given is biochemical.
Assay [2] concerns K48-linked Ub elongation on Ring1B. In words: In vitro K48-linked Ub elongation on Ring1B (western blot). The class given is biochemical. In general terms: In western blotting, separated proteins are transferred to a membrane and probed.
Assay [3] deals with USP2. Briefly: In vitro deubiquitination assay, USP2 with K48-linked tetra-Ub. The note with it: tetra-Ub chain, after removal of the distal Ub (tri-Ub). It counts as biochemical. The procedure:
as §1, §2, §3

[4] abbreviates: SPR, target ^K48Ub2, read-out: KD.
[5] abbreviates: range stated in the description, 'as exemplified', read-out: dimeric Ub binding affinity KD.
The mark [6] stands for this setting: SPR, target ^K48Ub4, read-out: KD.
Setting [7] is: range stated in the description, 'as exemplified', read-out: tetrameric Ub binding affinity KD.

Protocol for K48-Ub2: The interactions between cyclic peptides: U2i, U2ii, U4i, U4ix and Ub1, ^K48Ub2 and ^K48Ub4, were determined using BIACORE T100 instrument (GE healthcare) equipped with a biotin CAPture kit Series S chip. The buffer in all experiments contained 50 mM HEPES, pH 7.3, 150 mM NaCl, 0.05% Tween20, 2 mM DTT with 0.2% DMSO. Biotinylated Ub1, ^K48Ub2 and ^K48Ub4 were loaded to approximately equal molar amounts on the SPR chip, and various concentrations of cyclic peptides were flowed over at 100 μL/sec for 120 sec, before initiation of dissociation by flowing buffer over at 100 μL/sec for further 700 sec. Traces were fit to the simplest, two-state model for binding. Association was fit to a single exponential assuming pseudo-first order conditions, whereas the dissociation trace was fit to single exponential plus a drift term.
Each peptide was flowed over Ub1, ^K48Ub2 and ^K48Ub2 immobilized on SPR chips.

As for `CC(C)C[C@@H]1NC(=O)[C@H](CC(N)=O)NC(=O)[C@H](CC(=O)O)NC(=O)[C@H](Cc2ccccc2)NC(=O)[C@H](Cc2c[nH]c3ccccc23)NC(=O)CNC(=O)[C@@H](Cc2c[nH]c3ccccc23)NC(=O)CSC[C@@H](C(=O)NCC(N)=O)NC(=O)[C@H](Cc2c[nH]cn2)NC(=O)[C@H]([C@@H](C)O)NC(=O)[C@H](C(C)C)NC(=O)[C@H](Cc2ccc(O)cc2)NC(=O)[C@H](Cc2c[nH]c3ccccc23)NC(=O)[C@H](Cc2ccc(O)cc2)NC1=O` [Ub2i], the dissociation rate constant (koff) at K48-Ub2 (SPR, target ^K48Ub2) turned out to be 0.024 s⁻¹; on ^K48Ub4 (SPR, target ^K48Ub4), 0.011 s⁻¹. Besides, the kon on K48-Ub2 (SPR, target ^K48Ub2) came to 593000 M⁻¹ s⁻¹; at ^K48Ub4 (SPR, target ^K48Ub4), 779000 M⁻¹ s⁻¹. The Kd at K48-Ub2 (setting [4]) is 40 ± 12 nM; on K48-Ub2 (setting [5]), 20 to 40 nM; on ^K48Ub4 (setting [6]), 14 nM; at ^K48Ub4 (setting [7]), 15 to 25 nM. Moreover, in the assay with USP2 [1], the “inhibition of USP2” value was around 40%.
M*GWFDDLYLFVAY-CG [J08_mClBz]: the “fold improvement of binding affinity” value at K48-Ub2 (compared with U4i (chloroacetyl-cyclized peptide of same sequence)) came out at 9 fold.
As to *FQYWOYATGVCG [Ub4_a], the “inhibition of proteasomal degradation of α-globin-K48-linked tetra-Ub” value (shortened to “inhibition … of α-globin-K48-linked tetra-Ub”) in the assay on 26S proteasome is given as “clear inhibition”. For the same compound, the “inhibition of K48-linked Ub elongation on Ring1B” value in assay [2] is reported as “inhibit”.
For the compound *FQLWOHAIALCG [Ub4_e], the “inhibition … of α-globin-K48-linked tetra-Ub” value in the assay with 26S proteasome was “clear inhibition”. Besides, the “inhibition of K48-linked Ub elongation on Ring1B” value in assay [2] was “inhibit”.
As to “linear Ub4ix: uncyclized/linear form of Ub4ix (WLYLDDSGDWWICG; not fully specified (residue 1))”, the “inhibition … of α-globin-K48-linked tetra-Ub” value in the assay on 26S proteasome was “no inhibition”.
As to `CC(C)C[C@@H]1NC(=O)[C@H](CC(=O)O)NC(=O)[C@H](CC(=O)O)NC(=O)[C@H](Cc2ccccc2)NC(=O)[C@H](Cc2c[nH]c3ccccc23)NC(=O)CNC(=O)[C@@H](Cc2c[nH]c3ccccc23)NC(=O)CSC[C@@H](C(=O)NCC(N)=O)NC(=O)[C@H](Cc2ccc(O)cc2)NC(=O)[C@H](C)NC(=O)[C@H](C(C)C)NC(=O)[C@H](Cc2ccccc2)NC(=O)[C@H](CC(C)C)NC(=O)[C@H](Cc2ccc(O)cc2)NC1=O` [Ub4i], the koff on K48-Ub2 (SPR, target ^K48Ub2) worked out at 0.024 s⁻¹; on ^K48Ub4 (SPR, target ^K48Ub4), 0.011 s⁻¹. Also, the kon stood at 262000 M⁻¹ s⁻¹ on K48-Ub2 (SPR, target ^K48Ub2) and 407000 M⁻¹ s⁻¹ at ^K48Ub4 (SPR, target ^K48Ub4). In addition, the Kd on K48-Ub2 (setting [4]) was 91 nM; on K48-Ub2 (setting [5]), 85 to 115 nM; at K48-Ub2 (text and figure legend, K48-Ub2, read-out: KD / binding affinity), 90 nM; at ^K48Ub4 (setting [6]), 26 nM; on ^K48Ub4 (setting [7]), 20 to 35 nM. Also, the “inhibition of USP2” value in the assay with USP2 [1] is listed as around 40%; in the assay with USP2 [3], “strong inhibition”.

One may read the koff as a measure of how fast the partners let go of each other. What is called kon is a measure of how fast the partners come together.

The values are drawn from patent US12084523B2, “Ubiquitin high affinity cyclic peptides and methods of use thereof” (TECHNION RESEARCH & DEVELOPMENT FOUNDATION LIMITED, priority 2018, dated 2024).
